Test results from US20250230156A1, “CRYSTAL FORM OF ALLYL-CONTAINING METHYLPYRIDOPYRIMIDINE COMPOUND” (MEDSHINE DISCOVERY INC., priority 2022, published 2025).

What was measured:
H358 cells = assay: Anti-cell proliferation experiment of H358 cell 3D model (soft agar); format: cell-based; details: Homo sapiens, 336 h; NCI-H358, soft agar, 14 days co-incubation, Almar blue; read-out: Anti-proliferation inhibitory activity in H358 cell 3D model IC50
Procedure: RPMI1640 medium, fetal bovine serum, and penicillin/streptomycin antibiotics were purchased from Wisent, and low-melting agarose was purchased from Sigma. Almar blue reagent was purchased from Invitrogen. NCI-H358 cell line was purchased from Nanjing CoBioer Co., Ltd. Nivo multi-label analyzer (PerkinElmer).
H358 cells were seeded into a 96-well U-shaped plate. First, low-melting agarose was prepared into a 2% stock solution. Before use, the agarose stock solution was heated in a microwave oven to completely melt it, and then placed in a 42° C. water bath to keep the agarose in a liquid state. The gel was added to the serum-containing medium to prepare a gel with a concentration of 0.6% as the bottom layer gel, which was then dispensed into the 96-well U-shaped plate at 50 μL per well. After the bottom layer gel solidifies, 2% gel was added to the cell-containing medium to prepare a cell-containing top layer gel with a gel concentration of 0.4%. The cell density was […], and 75 μL was added to each well of the 96-well U-shaped plate with the bottom layer gel, resulting in a cell density of 3000 cells per well. […]
On the day of compound addition, 85 μL of liquid medium is added to the 96-well U-shaped plate with pre-seeded cells. […] The readings were taken using a multi-label analyzer. […]

KRAS (G12C) and SOS1 = molecular target: T1, KRAS (G12C) and SOS1 (Homo sapiens, UniProt Q07889); assay: KRAS (G12C) and SOS1 binding experiment (HTRF); details: SOS1 exchange domain (564-1049), 25° C. for 60 min, read-out: KRAS (G12C) and SOS1 binding inhibitory activity IC50
T1 sequence (Q07889 564-1049): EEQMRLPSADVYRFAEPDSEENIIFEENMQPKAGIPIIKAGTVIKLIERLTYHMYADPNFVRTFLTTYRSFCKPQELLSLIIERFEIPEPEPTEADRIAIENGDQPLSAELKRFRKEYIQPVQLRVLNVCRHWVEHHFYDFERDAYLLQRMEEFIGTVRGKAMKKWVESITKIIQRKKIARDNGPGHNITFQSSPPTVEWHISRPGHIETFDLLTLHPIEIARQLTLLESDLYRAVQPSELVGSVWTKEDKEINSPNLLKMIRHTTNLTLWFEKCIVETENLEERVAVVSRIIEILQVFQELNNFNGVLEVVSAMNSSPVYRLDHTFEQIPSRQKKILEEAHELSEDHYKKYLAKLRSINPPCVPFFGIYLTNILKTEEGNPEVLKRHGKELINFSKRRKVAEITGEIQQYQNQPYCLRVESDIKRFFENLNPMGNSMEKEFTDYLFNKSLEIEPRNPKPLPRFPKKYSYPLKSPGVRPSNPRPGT
Procedure: The multi-functional microplate reader Nivo5 was purchased from PerkinElmer.
Preparation method: 4-hydroxyethylpiperazine ethyl sulfonate (Hepes): 5 mM; sodium chloride (NaCl): 150 mM; ethylenediaminetetraacetic acid (EDTA): 10 mM, CO-630 (Igepal): 0.0025%, potassium fluoride (KF): 100 mM; dithiothreitol (DTT): 1 mM; and bovine serum albumin (BSA): 0.05%.
1) The test compound was diluted five-fold using DMSO with a multi-channel pipette until the 8th concentration was achieved, starting from 1 mM and ending at 0.064 μM.
2) The various gradients of the test compound were diluted with 1 buffer to form working solutions containing 2% DMSO. 5 μL of each working solution was then dispensed into the corresponding wells, with a concentration gradient ranging from 20 μM to 0.00128 nM. Duplicate well experiment was set up for each concentration. Following this, the plate was centrifuged at 1000 rpm for 1 min.
3) A mixed working solution containing KRAS (G12C) at a concentration of 200 nM and Mab Anti GST-Eu cryptate at a concentration of […] was prepared using 1× buffer. […]
4) A mixed working solution containing SOS1 at a concentration of 80 nM and Mab Anti 6HIS-XL665 at a concentration of […] was prepared using 1× buffer. […] After the reaction was completed, the HTRF was read using a multi-label analyzer. […]

[1] = system: p-ERK in DLD-1 cells (KRAS G13D mutation); assay: pERK expression levels in DLD-1 cells using HTRF; format: cell-based; details: Homo sapiens, 1.5 h compound incubation, read-out: Inhibitory activity against p-ERK in DLD-1 cells IC50
Procedure: The phosphorylation level of ERK protein in DLD-1 cells with KRAS G13D mutation was detected by the Homogeneous Time-Resolved Fluorescence (HTRF) method, and the IC50 and IC90 values of compounds are employed as indicators to evaluate the inhibitory activity of these compounds towards ERK phosphorylation within the RAS signaling pathway.
1) DLD-1 cells (50,000 cells/well) were seeded into a 96-well plate, and each well was filled with 90 μL of RPMI-1640 medium (10% fetal bovine serum), and then placed in a 37° C., 5% carbon dioxide incubator for overnight culture.
10 μL of DMSO-cell culture medium mixture were added to the solvent control and positive control, with a final DMSO concentration of 0.25%. The 96-well cell plate was then returned to the incubator for 1.5 h of culture.
4) The cell supernatant was removed, and 50 μL of 1× lysis buffer was immediately added, followed by shaking and incubation at room temperature for 30 min.
5) A pipette was used to blow and mix the solution evenly, and 16 μL of cell lysate was transferred from the 96-well plate to the HTRF 384-well detection plate.
6) 4 μL of pre-mixed antibody solution were added, the plate was sealed, and incubated at 4° C. The fluorescence emission intensities at 665 nm and 620 nm were detected using an HTRF plate reader. […]

## C=C[C@@H](Nc1nc(C)nc2cc(=O)n(C3(C(F)F)CC3)cc12)c1cccc(C(F)F)c1F [Compounds as shown in formula (I)]
H358 cells
  IC50: 91 nM
KRAS (G12C) and SOS1
  IC50: 13 nM
[1]
  IC50: 37 nM
